The numbers were not newly measured in patent US20190201417A1, “TOPICAL STEROID THERAPY FOR MUCOSAL AND DERMATOLOGICAL INFLAMMATORY DISEASE” (CINRX PHARMA, LLC, priority 2016, published 2019), which cites them from elsewhere.

Where two headings read alike, the source gives them in different places.

One data set deals with Caco-2 cell monolayers. Particulars: coadministration with chitosan glutamate.
The conditions of data set [1]: sheep, nasal application with chitosan glutamate.
For data set [2] the following is noted: rats, nasal application with chitosan glutamate.

Take “9-desglycinamide-8-arginine vasopressin [DGAVP]”: the “transport of the peptide drug” value in the data set with Caco-2 cell monolayers was “increased markedly”.

Take insulin: the blood glucose levels result in data set [1] and in data set [2] was “significant reduction” throughout.

Turning to `CCNC(=O)[C@@H]1CCCN1C(=O)[C@H](CCCNC(=N)N)NC(=O)[C@H](CC(C)C)NC(=O)[C@@H](COC(C)(C)C)NC(=O)[C@H](Cc1ccc(O)cc1)NC(=O)[C@H](CO)NC(=O)[C@H](Cc1c[nH]c2ccccc12)NC(=O)[C@H](Cc1cnc[nH]1)NC(=O)[C@@H]1CCC(=O)N1` [buserelin], the “absolute bioavailability of buserelin” value was 5.1±1.5% (intraduodenal application with chitosan hydrochloride in a gel formulation) and 0.1±0.1% (intraduodenal application, baseline without chitosan hydrochloride).
